Patent US20140378460A1, “COMPOSITIONS AND METHODS FOR TREATING NEURODEGENERATIVE DISEASE” (COGNITION THERAPEUTICS, INC., priority 2011, published 2014)
Entries after “also recorded” stand apart in the source; their conditions may differ. Like-named read-outs stand apart in the source and are kept apart here.

What was measured:
[1] = system: SKOV-3 human ovarian cancer cell line; experiment: MTS tumor cell viability assay; format: cell-based
Experimental: The cytotoxicity of compounds shown below was determined using the CellTiter96 Aqueous One Solution Assay (Promega, Madison, Wis.). […] The plate was read at 490 nm in a Victor3 plate reader (PerkinElmer Life and Analytical Sciences, Shelton, Conn.). The EC^50 value, defined as the concentration of the sigma ligand required to inhibit cell viability by 50% relative to untreated cells, was determined from the dose response curve for each cell line.

[2] = in vivo; details: male, C57BL/6, mouse, sc, 10 mg/kg
From the text: A plasma calibration curve was generated.
Subcutaneous compound administration was accomplished by […]. Per oral administration was accomplished by gastric gavage. Intravenous administration was accomplished via jugular catheter.
A brain calibration curve was generated.

[3] = system: sigma-2 receptor; details: 1 μM each; 18.4 nM [3H]-RHM-1
[4] = system: Abeta oligomer-induced membrane trafficking deficits in primary hippocampal neurons; experiment: Membrane trafficking/exocytosis (MTT) assay; format: cell-based, rat; details: for EC50: Rattus norvegicus, Hippocampal neuron; for Effect on membrane trafficking when dosed alone (words): absence of Abeta oligomers; for Effect against human Alzheimer's patient-derived Abeta oligomers (words): oligomers isolated from AD patient brains
[5] = system: HepG2 tumor cell line; experiment: HepG2 toxicity; format: cell-based; details: 10 μM
[6] = system: hAPP transgenic mice (Swedish and London mutations); experiment: Morris water maze in hAPP transgenic mice; format: in vivo, mouse; details: II 0.5 mg/kg/day; subcutaneous minipump
Experimental: In this study, rather than preventing deficits from occurring, deficits that were already established were treated. These studies were performed pursuant to a service contract by scientists who were blind to the experimental conditions. […]
The swim speed was analyzed as part of the Morris measurements to determine if there were any motor or motivational deficits. Our vehicle is a 5% DMSO/5% Solutol, 90% saline mixture. […] The average of three daily trials on each of four consecutive days were determined.
Escape latency measurements from the Morris water test were taken.
During the final four days of treatment, mice were tested to find the hidden platform in three trials/day. A computerized tracking system automatically quantified escape latency, or swim length.

[7] = target: T1, sigma-2 receptor (Rattus norvegicus, UniProt Q5U3Y7); experiment: Sigma-2 competitive radioligand binding, [3H]DTG with 300 nM (+)pentazocine, rat cerebral cortex membranes
T1 sequence (Q5U3Y7 1-176): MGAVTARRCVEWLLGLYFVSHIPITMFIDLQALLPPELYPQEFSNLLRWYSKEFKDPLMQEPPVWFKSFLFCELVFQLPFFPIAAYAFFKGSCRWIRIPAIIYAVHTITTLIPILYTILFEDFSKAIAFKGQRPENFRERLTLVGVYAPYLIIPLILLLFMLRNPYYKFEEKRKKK
Experimental: Reactions were terminated by rapid filtration through Whatman GF/C filters using a Brandel 12R cell harvester followed by two washes with ice-cold buffer. Radioactivity on the dried filter discs was measured using a liquid scintillation analyzer (Tri-Carb 2900TR; PerkinElmer Life and Analytical Sciences). The displacement curves were plotted and the Ki values of the test ligands for the receptor subtypes were determined using GraphPad Prism (GraphPad Software Inc., San Diego, Calif.). The percentage specific binding was determined by dividing the difference between total bound (disintegrations per minute) and nonspecific bound (disintegrations per minute) by the total bound (disintegrations per minute).

[8] = target: T1, sigma-2 receptor; experiment: Competitive Radioligand Binding Assay 2, sigma-2, rat liver membrane homogenates; set-up: conducted using rat liver membrane homogenates; from tissue; host or cells: rat liver membrane homogenates; details: read-out: Ki at sigma-2 receptors
Experimental: Test compounds were dissolved in N,N-Dimethylformamide (DMF), dimethyl sulfoxide (DMSO) or ethanol and then diluted in 50 mM Tris-HCl pH 7.4 buffer containing 150 mM NaCl and 100 mM EDTA. Membrane homogenates were made from guinea pig brain for sigma-1 binding assay and rat liver for sigma-2 binding assay. Membrane homogenates were diluted with 50 mM Tris-HCl buffer, pH 8.0 and incubated at 25° C. in a total volume of 150 uL in 96 well plates with the radioligand and test compounds with concentrations ranging from 0.1 nM to 10 uM. After incubation was completed, the reactions were terminated by the addition of 150 uL of ice-cold wash buffer (10 mM Tris HCl, 150 mM NaCl, pH 7.4) using a 96 channel transfer pipette (Fisher Scientific, Pittsburgh, Pa.) and the samples harvested and filtered rapidly through 96 well fiber glass filter plate (Millipore, Billerica, Mass.) that had been presoaked with 100 uL of 50 mM Tris-HCl buffer. Each filter was washed four times with 200 uL of ice-cold wash buffer (10 mM Tris-HCl, 150 mM NaCl, pH 7.4).
The binding affinity, Ki values was calculated using the method of Cheng and Prusoff.

[9] = system: Abeta oligomer binding to primary neurons; experiment: Abeta 1-42 oligomer binding assay; format: cell-based, rat
Experimental: In this assay, Abeta oligomers were brought in contact with mature primary neurons in culture and their binding was determined by immunohistochemistry (anti-Abeta antibody) and quantified by image processing. The amount of Abeta in neuronal dendrites is assessed by counting the number of labeled puncta on the neuritis. […] This labeling is associated with synapses, co-localizing with the post-synaptic scaffold protein PSD-95 (Lacor et al., '04). […] The number of synapses can also be quantified in this assay by immunofluorochemistry. Similar procedures for binding assays can be found in the literature. […] Review.
Primary hippocampal neuronal culture was established as in the membrane trafficking assay above. […] Pretreatment with compounds to be tested lasted for 1 hr and addition of Abeta oligomers or no oligomer (vehicle alone) in a final concentration of 70 ul was followed by incubation for an additional 23 hrs.
The plates were then washed 3× with PBS for 5 min each. The plates were blocked at RT for 1 hr in 5% goat serum and 0.5% Triton X-100 in PBS. […] Primary antibodies were incubated overnight at 4° C. The plates were then washed 3× with PBS for 5 min each. […] Secondary antibodies were incubated at RT for 1 hr. The plates were washed once with PBS. DAPI (4′,6-diamidino-2-phenylindole, Invitrogen) was then applied at 0.03 ug/ul and incubated at RT for 5 min, then washed with PBS.

[10] = target: D3(h) (agonist effect) (Homo sapiens, UniProt P35462); experiment: Receptor panel, block of downstream signaling; format: cell-based
Experimental: (§1) It was also tested for its ability to block downstream signaling induced by agonists or antagonists of a given human receptor.

[11] = target: alpha 1A (h) (antagonist effect) (Homo sapiens, UniProt P35348); experiment: Receptor panel, block of downstream signaling; format: cell-based; details: read-out: % Inhibition of Control
Experimental: as §1

D3(h) (agonist effect), sequence (P35462 whole entry): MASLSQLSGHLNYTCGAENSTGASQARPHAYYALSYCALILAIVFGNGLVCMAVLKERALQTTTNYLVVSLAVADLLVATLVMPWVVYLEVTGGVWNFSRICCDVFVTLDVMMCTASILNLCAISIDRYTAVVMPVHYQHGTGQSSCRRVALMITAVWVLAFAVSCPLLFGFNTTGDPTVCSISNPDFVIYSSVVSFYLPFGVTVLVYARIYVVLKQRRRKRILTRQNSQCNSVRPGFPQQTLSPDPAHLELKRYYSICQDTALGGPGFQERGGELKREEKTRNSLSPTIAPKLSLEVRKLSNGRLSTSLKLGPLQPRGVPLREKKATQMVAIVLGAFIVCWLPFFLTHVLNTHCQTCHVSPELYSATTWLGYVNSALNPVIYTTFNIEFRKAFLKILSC
alpha 1A (h) (antagonist effect), sequence (P35348 whole entry): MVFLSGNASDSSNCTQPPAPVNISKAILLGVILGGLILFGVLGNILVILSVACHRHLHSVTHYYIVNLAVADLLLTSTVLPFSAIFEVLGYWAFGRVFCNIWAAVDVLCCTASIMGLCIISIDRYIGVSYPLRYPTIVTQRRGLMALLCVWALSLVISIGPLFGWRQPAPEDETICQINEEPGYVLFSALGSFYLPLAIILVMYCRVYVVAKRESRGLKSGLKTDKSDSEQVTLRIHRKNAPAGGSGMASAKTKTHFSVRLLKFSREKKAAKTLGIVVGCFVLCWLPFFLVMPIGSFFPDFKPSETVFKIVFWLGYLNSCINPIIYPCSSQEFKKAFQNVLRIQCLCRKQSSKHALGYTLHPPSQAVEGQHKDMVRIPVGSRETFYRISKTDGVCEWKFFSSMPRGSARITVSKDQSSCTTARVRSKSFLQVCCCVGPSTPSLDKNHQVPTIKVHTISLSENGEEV

Compound: COc1cc(CCC(C)NCc2ccc(C(F)(F)F)cc2)ccc1O (centres unmarked) [Compound II]
- IC50 ([1]; Homo sapiens, SK-OV-3, tumor cell viability, 48 hrs): 150 ± 12 µM
- Action ([1]; by EC50 relative to siramesine): Antagonist
- AUC [2]: 385 ng·h/mL
- Cmax [2]: 279 ng/mL
- Tmax [2]: 30 min
- Displacement of [3H]-RHM-1 [3]: partially displace
- Effect on Abeta oligomer trafficking deficits over the concentrations tested [4]: blocks oligomer-induced trafficking deficits at all concentrations tested
- Max Inhibition of Abeta (%) [4]: 68%
- Ki ([4]; Km for Abeta = 0.4 uM, assay concentr. 3 μM total Abeta, read-out: Calculated Ki): 260 nM
- EC50 ([4]; Table 11A, read-out: Block Aβ-induced membrane trafficking deficits EC50): 2200 nM
- EC50 ([4]; Table 11B, read-out: Inhibition Abeta oligomer-induced Membrane Trafficking EC50): 2200 nM
- EC50 ([4]; Table 12, read-out: EC50): 2200 nM
- EC50 ([4]; added after oligomers (treatment mode), read-out: EC50 blocking oligomer effects): 4100 nM
- EC50 ([4]; added before oligomers (prevention mode), read-out: EC50 blocking oligomer effects): 2200 nM
- Functional Neuronal Phenotype ([4]; Table 11B): Antagonist
- Effect on membrane trafficking when dosed alone (words) [4]: no significant effect on membrane trafficking
- Effect on membrane trafficking when dosed alone (words) ([4]; listed as compound II): does not affect membrane trafficking
- Cpd alone at Ki ([4]; compound without Abeta oligomers): +1%
- Max Inhib. of Abeta (Conc) ([4]; concentration in brackets): 85% (10)
- Effect against human Alzheimer's patient-derived Abeta oligomers (words) [4]: completely eliminated
- Effect against human Alzheimer's patient-derived Abeta oligomers (words) ([4]; listed as compound II): rightward shift; also recorded: blocks the membrane trafficking deficits
- Schild slope ([4]; synthetic Abeta oligomers): −0.75
- Assay effects in the absence of Aβ ([4]; trafficking or synapse number without Abeta oligomer): No
- HepG2 toxicity [5]: 66%
- Morris water maze performance versus vehicle-treated transgenic animals [6]: significant improvement in transgenic performance
- Ki ([7]; Ki at sigma-2 receptors, displacement of [3H]DTG/300 nM (+)-pentazocine, rat neocortex homogenate): 9 nM
- Ki ([7]; S2 binding Ki (nM), Table 11B): 9 nM
- Ki ([7]; Sigma 2 Binding Ki (nM), Table 2, own compounds): 9 nM
- Ki ([7]; Sigma Affinity (S2) nM, Table 11E, own compounds): 9 nM
- Ki [8]: 59.7 nM
- Decrease of Abeta binding intensity (Abeta puncta) ([9]; FIG. 3D): 18%
- Partial block of binding of Abeta oligomer ligand to neurons ([9]; imaging processing algorithm): about 25%
- Other Targets: D3 ([10]; Table 11E): D3 (4 uM), Mu
- inhibition at 10 µM ([10]; read-out: % Inhibition of Control): 66%
- inhibition at 10 µM [11]: 56%
